One compound from article PMC6337497 (International Journal of Molecular Sciences, 2018) can be followed below.

The structures appear in SMILES notation.

Series [1] in a line: pH-metric titration, acid-base behavior (UV-vis, HypSpec). The series is classed as physicochemical. The conditions noted are these: pH 7. The protocol: pH-metric titrations were performed in order to assess K3F acidity and predict the most abundant species in physiological condition. […] Overall protonation constants (βHL) were calculated from spectrophotometric data and optimized by means of HypSpec software (Supplementary Table S1). K3F23, K3F24 and K3F33 behaved as weak monoprotic acids, with a pKa value close to 8–8.50 associated to the keto-enol moiety. As for the other two ligands, namely K3F21 and K3F31, the acid-base equilibria were more complex in view of the polyprotic nature of the compounds, and three logβLH values were calculated. Species distribution curves (Supplementary Figure S2) provided reliable prediction of neutral and charged forms as function of pH, and consequently helped to envisage cell penetration and distribution in physiological conditions. […] As for K3F21 and K3F31, they behaved as less weak acids, in fact at pH 7 58% of K3F21 and 65% of K3F31 were found in the mono-dissociated negatively charged form (H2L^−), these percentages increased up to 74% and 86% respectively at pH 7.4. […] This outcome could be attributed to the stabilizing effect of the intramolecular hydrogen bond between the methoxyl and hydroxyl groups on the aromatic ring in the indissociated form of K3F21, which shifts the equilibrium in favor of the neutral species (H3L).
UV-vis spectrophotometric measurements were performed using Jasco V-570 spectrophotometer at 25.0 ± 0.1 °C in the 200–600 nm spectral range employing 1 cm quartz cells. Owing to the poor water solubility of the compounds, a methanol mother solution (5 × 10^−3 M) was diluted in water in order to give 50 µM solutions used for pH-metric titrations. The pH value was varied by adding small amounts of concentrated NaOH or HCl, 25 points in the pH range 3–10. A constant ionic strength of 0.1 M (NaNO3) was maintained in all the experiments. Each titration was performed at least three times. The overall protonation constants (logβLH) were evaluated from spectrophotometric data using the software HypSpec.

The subject of series [2] is PC3 cells. Nature of the series: MTT cell viability assay, PC3. The conditions noted are these: Homo sapiens, PC-3, 48 h, 48 h treatment, MTT. The series is classed as cell-based, Human. How it is done:
(§1) Human prostate cancer PC3 cells (CRL 1435, ATCC, Manassas, VA, USA) were grown in Ham’s F12 nutrient medium, human prostate cancer DU145 cells (HTB-81, ATCC, Manassas, VA, USA) in RPMI 1640 medium and human colorectal carcinoma HCT116 cells (CCL-247, ATCC, Manassas, VA, USA) in IMDM medium. All media (Biowest, Nuaillé, France) were supplemented with 10% Foetal Bovine Serum (Gibco-Thermo Fisher Scientific, Waltham, MA, USA), L-glutamine, penicillin, and streptomycin (Euroclone, Milan, Italy), and grown at 37 °C in a humidified 5% CO2 atmosphere.
(§2) DMSO was used as control.
(§3) The inhibition of cell proliferation was measured by colorimetric MTT assay and the concentration at which cellular growth is inhibited by 50% (GI50) was determined. Briefly, cells were seeded into 96-well plates at a density of 2000 cells/well. The following day, cells were treated with the indicated compounds and analyzed for cell viability after 48 h. 5 mg/mL thiazolyl blue tetrazolium bromide (Sigma-Aldrich, St. Louis, MO, USA) was added to each well at a final concentration of 0.5 mg/mL and the plates were incubated at 37 °C for 2 h. Medium containing unconverted MTT was removed and 100 µL MTT solvent (4 mM HCl, 0.1% NP-40 in isopropyl alcohol) was added to each well. The plate was gently rotated on an orbital shaker in the dark for 15 min, before the measurements of absorbance at 570 nm. The viability of untreated cells was arbitrarily set at 100%.
For orientation: Formazan colour is commonly taken as a measure of viable cells.

In series [3] the test system is DU145 cells. Nature of the series: MTT cell viability assay, DU145. The series is classed as cell-based, Human. The settings on record: Homo sapiens, DU-145; 48 h treatment, MTT. How it is done:
as §1, §2, §3

The next series relates to HCT116 cells. Nature of the series: MTT cell viability assay, HCT116. The series is classed as cell-based, Human. The conditions noted are these: HCT116, 48 h.
Series [4] deals with PC3 cells. Nature of the series: Cell cycle analysis (propidium iodide), PC3. The series is classed as cell-based, Human. The conditions noted are these: PC3, 48 h at GI50 dose. How it is done:
Cells were harvested after 48 h drug treatments and DNA distribution analysis of cells stained with propidium iodide solution (propidium iodide 25 µg/mL, Na-Citrate 3.4 mM, NaCl 9.65 mM, NP-40 0.03%) was performed by an Epics cytofluorimeter (Beckman Coulter Srl, Milan, Italy).

Series [5] has as its system PC3 cells. As to the kind of experiment: RT-qPCR gene transcription, PC3. The series is classed as cell-based, Human. The conditions noted are these: PC3, 48 h at GI50 dose. The protocol:
(§4) Data are presented as relative transcript levels, normalized with RPL21 housekeeping gene, with DMSO levels arbitrarily set at 1.
(§5) RNA was extracted from cells using RNeasy kit (Qiagen, Venlo, The Netherlands) and reversed transcribed with a Moloney murine leukemia virus reverse transcriptase (Promega, Madison, WI, USA). Quantitative real-time PCRs were performed using SsoAdvanced Universal SYBR Green Supermix (Bio-Rad, Hercules, CA, USA) on a Bio-Rad CFX Connect™ real-time PCR detection system. Primer sequences are available upon request. The housekeeping gene Rpl21 was used as a loading control. The relative fold change enrichments of real-time PCR samples were calculated with the formula 2^−(ΔΔCt), where −(ΔΔCt) = −[(Ct target − Ct Rpl21)treated − (Ct target − Ct Rpl21)DMSO].
(In general: In qPCR the cycle at which signal appears reflects the starting amount.)

The subject of series [6] is DU145 cells. As to the kind of experiment: RT-qPCR gene transcription, DU145. The series is classed as cell-based, Human. The settings on record: DU145, 48 h at GI50 dose. The protocol:
as §4, §5

Series [7] deals with PC3 cells. As to the kind of experiment: Anchorage-dependent colony formation assay, PC3. Format: cell-based, Human. How it is done:
For anchorage-dependent colony formation assay, 1000 PC3 or 500 DU145 cells were plated in 6-well plates. […] After 7–10 days, the plates were washed, fixed and stained with 0.5% crystal violet solution in 20% Methanol. […] Colony numbers were normalized as a percentage of colonies formed following DMSO treatment.

In series [8] the test system is DU145 cells. As to the kind of experiment: K3F21/docetaxel co-administration, MTT and CompuSyn, DU145. The conditions noted are these: 48 h. Format: cell-based, Human. The protocol:
as §3
The ability of K3F21 and docetaxel to act synergistically with regard to growth inhibition was determined using CompuSyn software (ComboSyn, Inc., freely available at http://www.combosyn.com). Combination index (CI) and drug reduction index (DRI) were calculated for each concentration of drugs mixture, as indicated in the text. CI <1, =1 or >1 indicates synergism, additive effect, or antagonism, respectively. DRI >1 or <1 indicates favorable or not favorable dose-reduction.

The nature of series [9]: Lipophilicity (data not shown). Format: physicochemical.
Where [10] appears, read: compared to curcumin and control cells.

Procedure for HCT116 cells: Human prostate cancer PC3 cells (CRL 1435, ATCC, Manassas, VA, USA) were grown in Ham’s F12 nutrient medium, human prostate cancer DU145 cells (HTB-81, ATCC, Manassas, VA, USA) in RPMI 1640 medium and human colorectal carcinoma HCT116 cells (CCL-247, ATCC, Manassas, VA, USA) in IMDM medium. All media (Biowest, Nuaillé, France) were supplemented with 10% Foetal Bovine Serum (Gibco-Thermo Fisher Scientific, Waltham, MA, USA), L-glutamine, penicillin, and streptomycin (Euroclone, Milan, Italy), and grown at 37 °C in a humidified 5% CO2 atmosphere. The inhibition of cell proliferation was measured by colorimetric MTT assay [51] and the concentration at which cellular growth is inhibited by 50% (GI50) was determined. Briefly, cells were seeded into 96-well plates at a density of 2000 cells/well. The following day, cells were treated with the indicated compounds and analyzed for cell viability after 48 h. 5 mg/mL thiazolyl blue tetrazolium bromide (Sigma-Aldrich, St. Louis, MO, USA) was added to each well at a final concentration of 0.5 mg/mL and the plates were incubated at 37 °C for 2 h. Medium containing unconverted MTT was removed and 100 µL MTT solvent (4 mM HCl, 0.1% NP-40 in isopropyl alcohol) was added to each well. The plate was gently rotated on an orbital shaker in the dark for 15 min, before the measurements of absorbance at 570 nm. […]

By GI50 is commonly meant the concentration at which growth is held to half of that of the control. On to `COc1cc(/C=C/C(=O)C(CCCN2C(=O)c3ccccc3C2=O)C(=O)/C=C/c2ccc(O)c(OC)c2)ccc1O` [K3F21], for which the “mono-dissociated negatively charged form (H2L−)” value in series [1] is listed as 58%. The same compound came in with a GI50 in the series with PC3 cells [2] of 7.9 µM. Besides, the GI50 in the series with DU145 cells [3] is 8.6 µM. Also, in the series with HCT116 cells, the “anti-proliferative activity compared to the other derivatives” value was “most active molecule”. In addition, the “effect on cell cycle distribution (in words)” value in the series on PC3 cells [4] was “doubled the percentage of G2/M cells”. For the same compound, in the series on PC3 cells [5], the “Bcl-2 / Bcl-xl transcription” value is given as “Bcl-2, but not Bcl-xl, was weakly repressed”; the Noxa transcription entry is “induced”; the Puma transcription entry was “increased exclusively following K3F21 administration”; the “transcription of CDK inhibitors p21 and p27” value is recorded as “increased”. Moreover, the “transcription of Cdc2, CyclinB1, CyclinB2, and CyclinD1 cell cycle genes” value with PC3 cells [5] (setting [10]) is recorded as “general decrease, though not always significant”. In the series with DU145 cells [6], the EGFR expression entry is reported as “reduced”; the Noxa transcription entry was “induced”; the Puma transcription result is recorded as “increased exclusively following K3F21 administration”; the “transcription of CDK inhibitors p21 and p27” value is on record as “raised only after K3F21 treatment”. Moreover, in the series on DU145 cells [6] (setting [10]), the “transcription of Cdc2, CyclinB1, CyclinB2, and CyclinD1 cell cycle genes” value was “general decrease, though not always significant”. The anchorage-dependent colony formation result in the series on PC3 cells [7] (PC3, 5 µM) is given as “quite completely abolished”. The anchorage-dependent colony growth result with PC3 cells [7] (PC3, 7 days, different doses) is “clearly inhibited cell growth when administered at lower concentrations than curcumin”. Moreover, the “cell viability of co-administration compared to independent treatments” value in the series on DU145 cells [8] (DU145, K3F21 and DTX 20nM) is recorded as “significant decrease in cell viability”. Also, the “Combination Index (CI)” value with DU145 cells [8] (DU145, K3F21 co-administered with DTX 20nM) stood at 0.8. Further, in series [9], the lipophilicity result is listed as “high”.
